This passage reports T/C results from PubChem BioAssay AID330 (DTP/NCI, 2004).

Several values for one entry are separate records, joined by “and”; a condition that tells them apart may be missing. Equal values may be shown once. Inconclusive results and toxic doses are left out.

The experiment deals with P388 leukemia ip, CD2F1 mice, survival T/C. In words: NCI In Vivo Anticancer Drug Screen. Data for tumor model P388 Leukemia (intraperitoneal) in CD2F1 (CDF1) mice. Particulars: endpoint: median survival time, higher = longer survival. In a few lines: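 Mice carrying the transplanted tumor received test compound or vehicle. Survival was recorded in each group, and the value is the treated-group measurement divided by that of the vehicle-treated control group.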

Where [1] appears, read: dose: 50.0 mg/kg/injection, schedule: Q01DX009 (ip), vehicle: saline.
Where [2] appears, read: dose: 100.0 mg/kg/injection, schedule: Q01DX009 (ip), vehicle: saline.
Where [3] appears, read: dose: 50.0 mg/kg/injection, schedule: Q01DX005 (ip), vehicle: saline with Tween-80.
[4] abbreviates: dose: 100.0 mg/kg/injection, schedule: Q01DX005 (ip), vehicle: saline with Tween-80.
Where [5] appears, read: dose: 200.0 mg/kg/injection, schedule: Q01DX005 (ip), vehicle: saline with Tween-80.
Setting [6] is: dose: 6.25 mg/kg/injection, schedule: Q01DX009 (ip), vehicle: saline.
Setting [7] is: dose: 12.5 mg/kg/injection, schedule: Q01DX009 (ip), vehicle: saline.
[8] abbreviates: dose: 25.0 mg/kg/injection, schedule: Q01DX009 (ip), vehicle: saline.

For the compound `COc1ccc(NC(=O)c2ccc(C(=O)Nc3ccc(OC)cc3)cc2)cc1`, the T/C was 90 % of control (dose: 50.0 mg/kg/injection, schedule: Q01DX001 (ip), vehicle: other); 95 % of control (dose: 100.0 mg/kg/injection, schedule: Q01DX001 (ip), vehicle: other); 90 % of control (dose: 200.0 mg/kg/injection, schedule: Q01DX001 (ip), vehicle: other); 95 % of control (dose: 400.0 mg/kg/injection, schedule: Q01DX001 (ip), vehicle: other).

For the compound `Nc1ncnc2c1nc([Se])n2C1OC(CO)C(O)C1O` (stereo unspecified), the T/C is, setting by setting: (dose: 25.0 mg/kg/injection, schedule: Q01DX005 (ip), vehicle: other) 97 % of control; (dose: 100.0 mg/kg/injection, schedule: Q01DX005 (ip), vehicle: other) 97 % of control; (dose: 200.0 mg/kg/injection, schedule: Q01DX005 (ip), vehicle: other) 86 % of control; (dose: 400.0 mg/kg/injection, schedule: Q01DX005 (ip), vehicle: other) 105 % of control.

Regarding `CC(C)(C)c1cc(N)cc([N+](=O)[O-])c1`, the T/C was 109 % of control (dose: 100.0 mg/kg/injection, schedule: Q04DX002 (ip), vehicle: other) and 102 % of control (dose: 200.0 mg/kg/injection, schedule: Q04DX002 (ip), vehicle: other).

As for `COc1ccc2c(c1OC)C1N(C)CCc3cc4c(cc3C1(OC)C2=O)OCO4` (stereo unspecified), the T/C runs as follows: (dose: 60.0 mg/kg/injection, schedule: Q01DX005 (ip), vehicle: saline with Tween-80) 93 % of control; (dose: 120.0 mg/kg/injection, schedule: Q01DX005 (ip), vehicle: saline with Tween-80) 88 % of control; (dose: 240.0 mg/kg/injection, schedule: Q01DX005 (ip), vehicle: saline with Tween-80) 93 % of control.

In the case of `Cc1ccc(CCn2c3c(c4cc(Cl)ccc42)CN(C)CC3)cn1`, the T/C was 99 % of control under setting [1] and 102 % of control under setting [2].

In the case of `CNC(=O)OCc1ccc(NCCN(C)C)c2c(=O)c3cc(OC(=O)NC)ccc3oc12`, the T/C was 118 % of control (dose: 3.13 mg/kg/injection, schedule: Q01DX005 (ip), vehicle: Klucel (hydroxypropylcellulose) (HPC)) and 123 % of control (dose: 6.25 mg/kg/injection, schedule: Q01DX005 (ip), vehicle: Klucel (hydroxypropylcellulose) (HPC)).

As to `c1cc2nc(c1)CSCc1cc3c(cc1CSCc1cccc(n1)CSC3)CSC2`, the T/C (dose: 50.0 mg/kg/injection, schedule: Q01DX009 (ip), vehicle: suspension in saline) is 102 % of control; the T/C (dose: 100.0 mg/kg/injection, schedule: Q01DX009 (ip), vehicle: suspension in saline) is 94 % of control; the T/C (dose: 200.0 mg/kg/injection, schedule: Q01DX009 (ip), vehicle: suspension in saline) is 86 % of control.

Turning to `COc1cc2cc[n+](C)c(C)c2cc1OC`, the T/C (dose: 12.5 mg/kg/injection, schedule: Q01DX009 (ip), vehicle: distilled water + Tween-80) is 111 % of control; the T/C (dose: 25.0 mg/kg/injection, schedule: Q01DX009 (ip), vehicle: distilled water + Tween-80) is 111 % of control and 120 % of control; the T/C (dose: 50.0 mg/kg/injection, schedule: Q01DX009 (ip), vehicle: distilled water + Tween-80) is 121 % of control and 124 % of control; the T/C (dose: 100.0 mg/kg/injection, schedule: Q01DX009 (ip), vehicle: distilled water + Tween-80) is 100 % of control and 118 % of control.

In the case of `O=C(O)CSc1ncccc1Nc1ccc([N+](=O)[O-])cn1`, the T/C runs as follows: under setting [1], 102 % of control; under setting [2], 86 % of control.

Consider `[Cu+].[NH-]CCCN=Cc1ccccc1O`, for which the T/C reads like this: (dose: 25.0 mg/kg/injection, schedule: Q01DX001 (ip), vehicle: saline sonified) 95 % of control; (dose: 50.0 mg/kg/injection, schedule: Q01DX001 (ip), vehicle: saline sonified) 105 % of control.

In the case of `C1=CC2C3CSCC3C1C1CC21` (stereo unspecified), the T/C is, setting by setting: (dose: 100.0 mg/kg/injection, schedule: Q04DX003 (ip), vehicle: saline) 105 % of control; (dose: 200.0 mg/kg/injection, schedule: Q04DX003 (ip), vehicle: saline) 103 % of control; (dose: 400.0 mg/kg/injection, schedule: Q04DX003 (ip), vehicle: saline) 102 % of control.

As to `COc1ccc2c(c1)CC1c3c(cc4c(c3-2)OCO4)CCN1C` (stereo unspecified), the T/C is 93 % of control (dose: 30.0 mg/kg/injection, schedule: Q01DX005 (ip), vehicle: Klucel (hydroxypropylcellulose) (HPC)); 90 % of control (dose: 60.0 mg/kg/injection, schedule: Q01DX005 (ip), vehicle: Klucel (hydroxypropylcellulose) (HPC)); 90 % of control (dose: 120.0 mg/kg/injection, schedule: Q01DX005 (ip), vehicle: Klucel (hydroxypropylcellulose) (HPC)).

Take `CC1=CC(=N/Br)/C=CC/1=N/Br`: the T/C is, setting by setting: under setting [3], 108 % of control; under setting [4], 100 % of control; under setting [5], 99 % of control.

Turning to `O=C1C=CC(=O)N1c1ccc(Br)cc1Cl`, the T/C is 104 % of control (dose: 1.0 mg/kg/injection, schedule: Q01DX009 (ip), vehicle: saline); 113 % of control (dose: 1.8 mg/kg/injection, schedule: Q04DX003 (ip), vehicle: saline); 109 % of control (dose: 2.0 mg/kg/injection, schedule: Q01DX009 (ip), vehicle: saline); 109 % of control (dose: 2.6 mg/kg/injection, schedule: Q04DX003 (ip), vehicle: saline); 113 % of control (dose: 4.0 mg/kg/injection, schedule: Q01DX009 (ip), vehicle: saline); 113 % of control (dose: 4.0 mg/kg/injection, schedule: Q04DX003 (ip), vehicle: saline). For the setting “dose: 6.0 mg/kg/injection, schedule: Q04DX003 (ip), vehicle: saline”, the T/C was 118 % of control.

In the case of `O=C(O)C1C(C(=O)O)C2(Cl)C(Cl)=C(Cl)C1(Cl)C2(Cl)Cl.[Mn]` (stereo unspecified), the T/C runs as follows: (dose: 50.0 mg/kg/injection, schedule: Q04DX003 (ip), vehicle: saline sonified) 95 % of control; (dose: 100.0 mg/kg/injection, schedule: Q04DX003 (ip), vehicle: saline sonified) 91 % of control.

`Cc1ncc(CNC(=O)NCCCl)c(N)n1`: the T/C was 102 % of control (dose: 50.0 mg/kg/injection, schedule: Q01DX009 (ip), vehicle: Klucel (hydroxypropylcellulose) (HPC)); 103 % of control (dose: 100.0 mg/kg/injection, schedule: Q01DX009 (ip), vehicle: Klucel (hydroxypropylcellulose) (HPC)); 108 % of control (dose: 200.0 mg/kg/injection, schedule: Q01DX009 (ip), vehicle: Klucel (hydroxypropylcellulose) (HPC)).

For `Clc1nc2nc[nH]c2nc1Cl`, the T/C is, setting by setting: (dose: 11.0 mg/kg/injection, schedule: Q01DX009 (ip), vehicle: saline with Tween-80) 100 % of control; (dose: 16.5 mg/kg/injection, schedule: Q01DX009 (ip), vehicle: saline with Tween-80) 104 % of control; (dose: 25.0 mg/kg/injection, schedule: Q01DX009 (ip), vehicle: saline with Tween-80) 100 % of control; (dose: 25.0 mg/kg/injection, schedule: Q04DX003 (ip), vehicle: saline with Tween-80) 91 % of control; (dose: 37.5 mg/kg/injection, schedule: Q01DX009 (ip), vehicle: saline with Tween-80) 100 % of control.

Take `COc1cc(N(CCCl)CCCl)ccc1NC(=O)c1ccccc1`: the T/C was 150 % of control under setting [6]; 109 % of control (dose: 6.25 mg/kg/injection, schedule: Q04DX003 (ip), vehicle: saline with Tween-80); 168 % of control under setting [7]; 118 % of control (dose: 12.5 mg/kg/injection, schedule: Q04DX003 (ip), vehicle: saline with Tween-80); 113 % of control (dose: 16.5 mg/kg/injection, schedule: Q04DX003 (ip), vehicle: saline sonified); 100 % of control under setting [8]. Further, for the setting “dose: 37.5 mg/kg/injection, schedule: Q04DX003 (ip), vehicle: saline sonified”, the T/C was 181 % of control.

As to `COC(=O)/N=C/CCC(O)NC(=O)OC` (stereo unspecified), the T/C is, setting by setting: under setting [3], 98 % of control; under setting [4], 101 % of control; under setting [5], 92 % of control.

With `O=C(Oc1ccccc1)OC1CCN(C(=O)Oc2ccccc2)CC1`, the T/C reads like this: (dose: 50.0 mg/kg/injection, schedule: Q01DX001 (ip), vehicle: Klucel (hydroxypropylcellulose) (HPC)) 100 % of control; (dose: 100.0 mg/kg/injection, schedule: Q01DX001 (ip), vehicle: Klucel (hydroxypropylcellulose) (HPC)) 102 % of control; (dose: 200.0 mg/kg/injection, schedule: Q01DX001 (ip), vehicle: Klucel (hydroxypropylcellulose) (HPC)) 100 % of control; (dose: 400.0 mg/kg/injection, schedule: Q01DX001 (ip), vehicle: Klucel (hydroxypropylcellulose) (HPC)) 100 % of control.

On to `CC(=O)c1ccc[n+](Cc2c(Cl)cccc2Cl)c1`, for which the T/C was 101 % of control under setting [6]; 100 % of control and 104 % of control under setting [7]; 101 % of control and 114 % of control under setting [8].
